Results: ChEMBL document CHEMBL1143353, “Pyrazolo[1,5-a]-1,3,5-triazine as a purine bioisostere: access to potent cyclin-dependent kinase inhibitor (R)-roscovitine analogue” (J Med Chem, 2009)

Tests used:
[1] = system: NCI/ADR-RES; assay: cells; details: Homo sapiens, 72 h
Description: Antiproliferative activity against human NCI/ADR-RES cells after 72 hrs by ViaLight assay

[2] = Inhibition of starfish oocytes CDK1/cyclin B; parameters: species or system Marthasterias glacialis; details: oocyte
[3] = system: MCF7; assay: cells; details: Homo sapiens, MCF7, 72 h
Description: Antiproliferative activity against human MCF7 cells after 72 hrs by ViaLight assay

[4] = system: HCT-15; assay: cells; details: Homo sapiens, HCT-15, 72 h
Description: Antiproliferative activity against human HCT15 cells after 72 hrs by ViaLight assay

[5] = system: NCI-H322M; assay: cells; details: Homo sapiens, 72 h
Description: Antiproliferative activity against human NCI-H322M cells after 72 hrs by ViaLight assay

[6] = system: T47D; assay: cells; details: Homo sapiens, 72 h
Description: Antiproliferative activity against human T47D cells after 72 hrs by ViaLight assay

[7] = system: UACC-257; assay: Antiproliferative activity against human UACC257 cells after 72 hrs by ViaLight assay; format: functional; details: UACC-257, 72 h
[8] = system: SF-268; assay: cells; details: Homo sapiens, SF-268, 72 h
Description: Antiproliferative activity against human SF268 cells after 72 hrs by ViaLight assay

[9] = system: ACHN; assay: cells; details: Homo sapiens, 72 h
Description: Antiproliferative activity against human ACHN cells after 72 hrs by ViaLight assay

[10] = system: HOP-92; assay: cells; details: Homo sapiens, HOP-92, 72 h
Description: Antiproliferative activity against human HOP92 cells after 72 hrs by ViaLight assay

[11] = system: MOLT-4; assay: cells; details: Homo sapiens, MOLT-4, 72 h
Description: Antiproliferative activity against human MOLT4 cells after 72 hrs by ViaLight assay

[12] = system: SK-MEL-5; assay: cells; details: Homo sapiens, SK-MEL-5, 72 h
Description: Antiproliferative activity against human SK-MEL-5 cells after 72 hrs by ViaLight assay

[13] = system: SK-OV-3; assay: cells; details: Homo sapiens, SK-OV-3, 72 h
Description: Antiproliferative activity against human SKOV3 cells after 72 hrs by ViaLight assay

[14] = system: OVCAR-5; assay: cells; details: Homo sapiens, OVCAR-5, 72 h
Description: Antiproliferative activity against human OVCAR5 cells after 72 hrs by ViaLight assay

[15] = system: SNB-75; assay: cells; details: Homo sapiens, SNB-75, 72 h
Description: Antiproliferative activity against human SNB75 cells after 72 hrs by ViaLight assay

[16] = system: NCI-H522; assay: cells; details: Homo sapiens, NCI-H522, 72 h
Description: Antiproliferative activity against human NCI-H522 cells after 72 hrs by ViaLight assay

[17] = system: K562; assay: cells; details: Homo sapiens, K562, 72 h
Description: Antiproliferative activity against human K562 cells after 72 hrs by ViaLight assay

[18] = system: RXF 393; assay: cells; details: Homo sapiens, RXF 393, 72 h
Description: Antiproliferative activity against human RFX393 cells after 72 hrs by ViaLight assay

[19] = system: CAKI-1; assay: cells; details: Homo sapiens, CAKI-1, 72 h
Description: Antiproliferative activity against human Caki1 cells after 72 hrs by ViaLight assay

[20] = system: SH-SY5Y; assay: Antiproliferative activity against human SH-SY5Y cells after 48 hrs by MTS reduction assay; format: functional, cell-based
[21] = system: SF-539; assay: cells; details: Homo sapiens, SF-539, 72 h
Description: Antiproliferative activity against human SF539 cells after 72 hrs by ViaLight assay

[22] = system: Malme-3M; assay: cells; details: Homo sapiens, 72 h
Description: Antiproliferative activity against human MALME-3M cells after 72 hrs by ViaLight assay

[23] = system: EKVX; assay: cells; details: Homo sapiens, 72 h
Description: Antiproliferative activity against human EKVX cells after 72 hrs by ViaLight assay

[24] = system: KM12; assay: cells; details: Homo sapiens, KM12, 72 h
Description: Antiproliferative activity against human KM12 cells after 72 hrs by ViaLight assay

[25] = system: LOX IMVI; assay: cells; details: Homo sapiens, 72 h
Description: Antiproliferative activity against human LOXIMVI cells after 72 hrs by ViaLight assay

[26] = system: MDA-MB-468; assay: cells; details: Homo sapiens, MDA-MB-468, 72 h
Description: Antiproliferative activity against human MDA-MB-468 cells after 72 hrs by ViaLight assay

[27] = system: NCI-H23; assay: cells; details: Homo sapiens, NCI-H23, 72 h
Description: Antiproliferative activity against human NCI-H23 cells after 72 hrs by ViaLight assay

[28] = system: BT-549; assay: Antiproliferative activity against human BT549 cells after 72 hrs by ViaLight assay; format: functional; details: BT-549, 72 h
[29] = system: TK-10; assay: cells; details: Homo sapiens, TK-10, 72 h
Description: Antiproliferative activity against human TK10 cells after 72 hrs by ViaLight assay

[30] = read-out: LC50 (the source's name)
[31] = read-out: pLC50 (the source's name) (converted)

CC[C@H](CO)Nc1nc(NCc2ccccc2)n2ncc(C(C)C)c2n1
GI50 [1]: 2.08 µM
TGI [1]: 15.7 µM
CC50 ([1]; read-out: LC50): > 100 µM
GI50 ([1]; read-out: pGI50 (converted)): 2.09 µM
CC50 ([1]; read-out: pLC50 (converted)): 100 µM
TGI ([1]; read-out: pTGI): 15.8 µM
IC50 [2]: 0.073 µM
GI50 [3]: 0.59 µM
TGI [3]: 7.99 µM
CC50 ([3]; read-out: LC50): > 100 µM
GI50 ([3]; read-out: pGI50 (converted)): 0.589 µM
CC50 ([3]; read-out: pLC50 (converted)): 100 µM
TGI ([3]; read-out: pTGI): 7.94 µM
GI50 [4]: 0.87 µM
TGI [4]: 10.5 µM
CC50 ([4]; read-out: LC50): > 100 µM
GI50 ([4]; read-out: pGI50 (converted)): 8.91 µM
CC50 ([4]; read-out: pLC50 (converted)): 100 µM
TGI ([4]; read-out: pTGI): 10.5 µM
GI50 [5]: 1.86 µM
TGI [5]: 8.92 µM
CC50 ([5]; read-out: LC50): > 100 µM
GI50 ([5]; read-out: pGI50 (converted)): 1.86 µM
CC50 ([5]; read-out: pLC50 (converted)): 100 µM
TGI ([5]; read-out: pTGI): 8.91 µM
GI50 [6]: 2.48 µM
TGI [6]: 13.3 µM
CC50 ([6]; read-out: LC50): > 100 µM
GI50 ([6]; read-out: pGI50 (converted)): 3.09 µM
CC50 ([6]; read-out: pLC50 (converted)): 100 µM
TGI ([6]; read-out: pTGI): 12.9 µM
GI50 ([7]; read-out: GI50): 3.56 µM
CC50 [7, 30]: > 100 µM
TGI ([7]; read-out: TGI): 15 µM
GI50 ([7]; read-out: pGI50 (converted)): 3.24 µM
CC50 [7, 31]: 100 µM
TGI ([7]; read-out: pTGI (converted)): 24 µM
GI50 [8]: 1.82 µM
TGI [8]: 7.2 µM
CC50 ([8]; read-out: LC50): > 100 µM
GI50 ([8]; read-out: pGI50 (converted)): 1.82 µM
CC50 ([8]; read-out: pLC50 (converted)): 100 µM
TGI ([8]; read-out: pTGI): 7.24 µM
GI50 [9]: 0.81 µM
TGI [9]: 10.7 µM
CC50 ([9]; read-out: LC50): 49.1 µM
GI50 ([9]; read-out: pGI50 (converted)): 0.813 µM
CC50 ([9]; read-out: pLC50 (converted)): 49 µM
TGI ([9]; read-out: pTGI): 10.7 µM
GI50 [10]: 1.67 µM
TGI [10]: 7.1 µM
CC50 ([10]; read-out: LC50): > 100 µM
GI50 ([10]; read-out: pGI50 (converted)): 1.66 µM
CC50 ([10]; read-out: pLC50 (converted)): 100 µM
TGI ([10]; read-out: pTGI): 7.08 µM
GI50 [11]: 2.18 µM
TGI [11]: 9.45 µM
CC50 ([11]; read-out: LC50): > 100 µM
GI50 ([11]; read-out: pGI50 (converted)): 2.19 µM
CC50 ([11]; read-out: pLC50 (converted)): 100 µM
TGI ([11]; read-out: pTGI): 9.55 µM
GI50 [12]: 1.78 µM
TGI [12]: 4.96 µM
CC50 ([12]; read-out: LC50): 17.4 µM
GI50 ([12]; read-out: pGI50 (converted)): 1.78 µM
CC50 ([12]; read-out: pLC50 (converted)): 17.4 µM
TGI ([12]; read-out: pTGI): 5.01 µM
GI50 [13]: 5.55 µM
TGI [13]: 40.2 µM
CC50 ([13]; read-out: LC50): > 100 µM
GI50 ([13]; read-out: pGI50 (converted)): 5.5 µM
CC50 ([13]; read-out: pLC50 (converted)): 100 µM
TGI ([13]; read-out: pTGI): 39.8 µM
GI50 [14]: 1.85 µM
TGI [14]: 15 µM
CC50 ([14]; read-out: LC50): > 100 µM
GI50 ([14]; read-out: pGI50 (converted)): 1.78 µM
CC50 ([14]; read-out: pLC50 (converted)): 100 µM
TGI ([14]; read-out: pTGI): 15.1 µM
GI50 [15]: 1.31 µM
TGI [15]: 3.33 µM
CC50 ([15]; read-out: LC50): 8.48 µM
GI50 ([15]; read-out: pGI50 (converted)): 1.32 µM
CC50 ([15]; read-out: pLC50 (converted)): 8.51 µM
TGI ([15]; read-out: pTGI): 3.31 µM
GI50 [16]: 1.46 µM
TGI [16]: 8.98 µM
CC50 ([16]; read-out: LC50): > 100 µM
GI50 ([16]; read-out: pGI50 (converted)): 1.45 µM
CC50 ([16]; read-out: pLC50 (converted)): 100 µM
TGI ([16]; read-out: pTGI): 8.91 µM
GI50 [17]: 2.44 µM
TGI [17]: 7.38 µM
CC50 ([17]; read-out: LC50): > 100 µM
GI50 ([17]; read-out: pGI50 (converted)): 2.45 µM
CC50 ([17]; read-out: pLC50 (converted)): 100 µM
TGI ([17]; read-out: pTGI): 7.41 µM
GI50 [18]: 0.25 µM
TGI [18]: 0.79 µM
CC50 ([18]; read-out: LC50): 4.25 µM
GI50 ([18]; read-out: pGI50 (converted)): 0.251 µM
CC50 ([18]; read-out: pLC50 (converted)): 4.27 µM
TGI ([18]; read-out: pTGI): 0.794 µM
GI50 [19]: 1.02 µM
TGI [19]: 8.35 µM
CC50 ([19]; read-out: LC50): > 100 µM
GI50 ([19]; read-out: pGI50 (converted)): 1.05 µM
CC50 ([19]; read-out: pLC50 (converted)): 100 µM
TGI ([19]; read-out: pTGI): 8.13 µM
IC50 [20]: 2.7 µM
GI50 [21]: 1.22 µM
TGI [21]: 3.62 µM
CC50 ([21]; read-out: LC50): 11.9 µM
GI50 ([21]; read-out: pGI50 (converted)): 1.23 µM
CC50 ([21]; read-out: pLC50 (converted)): 11.7 µM
TGI ([21]; read-out: pTGI): 3.63 µM
GI50 [22]: 2.6 µM
TGI [22]: 6.99 µM
CC50 ([22]; read-out: LC50): 43.5 µM
GI50 ([22]; read-out: pGI50 (converted)): 2.63 µM
CC50 ([22]; read-out: pLC50 (converted)): 43.7 µM
TGI ([22]; read-out: pTGI): 6.92 µM
GI50 [23]: 2.41 µM
TGI [23]: 9.13 µM
GI50 ([23]; read-out: pGI50 (converted)): 2.4 µM
TGI ([23]; read-out: pTGI): 9.12 µM
GI50 [24]: 0.71 µM
TGI [24]: 2.79 µM
CC50 ([24]; read-out: LC50): 9.3 µM
GI50 ([24]; read-out: pGI50 (converted)): 0.708 µM
CC50 ([24]; read-out: pLC50 (converted)): 9.77 µM
TGI ([24]; read-out: pTGI): 2.82 µM
GI50 [25]: 1.07 µM
TGI [25]: 10.3 µM
CC50 ([25]; read-out: LC50): 34.4 µM
GI50 ([25]; read-out: pGI50 (converted)): 1.07 µM
CC50 ([25]; read-out: pLC50 (converted)): 34.7 µM
TGI ([25]; read-out: pTGI): 10.2 µM
GI50 [26]: 1.88 µM
TGI [26]: 5.19 µM
CC50 ([26]; read-out: LC50): 63.5 µM
GI50 ([26]; read-out: pGI50 (converted)): 1.86 µM
CC50 ([26]; read-out: pLC50 (converted)): 63.1 µM
TGI ([26]; read-out: pTGI): 5.25 µM
GI50 [27]: 1.71 µM
TGI [27]: 7.79 µM
CC50 ([27]; read-out: LC50): > 100 µM
GI50 ([27]; read-out: pGI50 (converted)): 1.7 µM
CC50 ([27]; read-out: pLC50 (converted)): 100 µM
TGI ([27]; read-out: pTGI): 7.76 µM
GI50 ([28]; read-out: GI50): 1.56 µM
CC50 [28, 30]: 36.1 µM
TGI ([28]; read-out: TGI): 5.29 µM
GI50 ([28]; read-out: pGI50 (converted)): 2.45 µM
CC50 [28, 31]: 36.3 µM
TGI ([28]; read-out: pTGI): 5.25 µM
GI50 [29]: 2 µM
TGI [29]: 10.9 µM
CC50 ([29]; read-out: LC50): > 100 µM
GI50 ([29]; read-out: pGI50 (converted)): 2 µM
CC50 ([29]; read-out: pLC50 (converted)): 100 µM
TGI ([29]; read-out: pTGI): 11 µM
